Laboratory results reported in US10294229B2, “Heteroaryl substituted aminopyridine compounds” (BRISTOL-MYERS SQUIBB COMPANY, priority 2015, dated 2019).

Molecular target: IRAK4 (Homo sapiens (Human), UniProt Q9NWZ3)
Assay: IRAK4 Inhibition Assay
Type: biochemical
Settings: ATP 500 μM; IRAK4 0.6 nM
Protocol: The assays were performed in U-bottom 384-well plates. The final assay volume was 30 μL prepared from 15 μL additions of enzyme and substrates (fluoresceinated peptide and ATP) and test compounds in assay buffer (20 mM HEPES pH 7.2, 10 mM MgCl2, 0.015% Brij 35 and 4 mM DTT). The reaction was initiated by the combination of IRAK4 with substrates and test compounds. The reaction mixture was incubated at room temperature for 60 min. and terminated by adding 45 μL of 35 mM EDTA to each sample. The reaction mixture was analyzed on the Caliper LABCHIP® 3000 (Caliper, Hopkinton, Mass.) by electrophoretic separation of the fluorescent substrate and phosphorylated product. Inhibition data were calculated by comparison to no enzyme control reactions for 100% inhibition and vehicle-only reactions for 0% inhibition. The final concentrations of reagents in the assays are ATP, 500 μM; FL-IPTSPITTTYFFFKKK peptide 1.5 μM; IRAK4, 0.6 nM; and DMSO, 1.6%.

Sequence of IRAK4 (Q9NWZ3 whole entry, species assumed): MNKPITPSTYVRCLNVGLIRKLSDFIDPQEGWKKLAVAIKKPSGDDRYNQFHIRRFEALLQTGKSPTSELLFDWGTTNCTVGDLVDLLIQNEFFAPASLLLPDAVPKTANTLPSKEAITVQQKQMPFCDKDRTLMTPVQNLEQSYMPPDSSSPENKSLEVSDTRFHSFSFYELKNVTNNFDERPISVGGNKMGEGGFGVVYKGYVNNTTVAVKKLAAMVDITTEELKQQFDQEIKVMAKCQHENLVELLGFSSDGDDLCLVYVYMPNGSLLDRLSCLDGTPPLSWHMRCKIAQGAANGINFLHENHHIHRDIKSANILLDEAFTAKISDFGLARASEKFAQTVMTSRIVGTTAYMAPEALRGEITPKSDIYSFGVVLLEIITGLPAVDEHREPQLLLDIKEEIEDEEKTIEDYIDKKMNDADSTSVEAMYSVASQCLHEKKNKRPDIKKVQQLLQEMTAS

Compound: CC(C)Nc1cc(-n2ncc3cc(C#N)cnc32)ncc1-n1cc(Cc2ccccc2)cn1 [Example 243, 1-(5-(4-benzyl-1H-pyrazol-1-yl)-4-(isopropylamino)pyridin-2-yl)-1H-pyrazolo[3,4-b]pyridine-5-carbonitrile]
- IC50: 62 nM

Compound: CC(C)Nc1cc(-n2ncc3cc(C#N)cnc32)ncc1-c1cn(C[C@H](C)O)cn1 [Example 222, (S)-1-(5-(1-(2-hydroxypropyl)-1H-imidazol-4-yl)-4-(isopropylamino)pyridin-2-yl)-1H-pyrazolo[3,4-b]pyridine-5-carbonitrile]
- IC50: 63 nM

Compound: COC(=O)N1CC[C@@H](n2cc(-c3cnc(-n4ncc5cc(C#N)cnc54)cc3NC(C)C)nn2)[C@H](O)C1 (single isomer, unassigned) [Example 201]
- IC50: 4 nM

Compound: CC(C)Nc1cc(-n2cnc3cc(C#N)cnc32)ncc1-c1cn(CC(O)Cc2ccccc2)nn1 (single isomer, unassigned) [Example 79, 3-(5-(1-(2-hydroxy-3-phenylpropyl)-1H-1,2,3-triazol-4-yl)-4-(isopropylamino)pyridin-2-yl)-3H-imidazo[4,5-b]pyridine-6-carbonitrile]
- IC50: 26 nM

Compound: CC(C)Nc1cc(-n2ncc3cc(C#N)cnc32)ncc1-n1cc(C(C)(C)N)nn1 [Example 312, 1-(5-(4-(2-aminopropan-2-yl)-1H-1,2,3-triazol-1-yl)-4-(isopropylamino)pyridin-2-yl)-1H-pyrazolo[3,4-b]pyridine-5-carbonitrile]
- IC50: 213 nM

Compound: CC(C)Nc1cc(-n2ncc3cc(C#N)cnc32)ncc1-n1cc(-c2ccccn2)nn1 [Example 304, 1-(4-(isopropylamino)-5-(4-(pyridin-2-yl)-1H-1,2,3-triazol-1-yl)pyridin-2-yl)-1H-pyrazolo[3,4-b]pyridine-5-carbonitrile]
- IC50: 115 nM

Compound: CC(C)Nc1cc(-n2ncc3cc(C#N)cnc32)ncc1-n1cc(CCN)nn1 [Example 328, 1-(5-(4-(2-aminoethyl)-1H-1,2,3-triazol-1-yl)-4-(isopropylamino)pyridin-2-yl)-1H-pyrazolo[3,4-b]pyridine-5-carbonitrile]
- IC50: 26 nM

Compound: CCCn1cc(-c2cnc(-n3cnc4cc(C#N)cnc43)cc2NCC)nn1 [Example 55, 3-(4-(ethylamino)-5-(1-propyl-1H-1,2,3-triazol-4-yl)pyridin-2-yl)-3H-imidazo[4,5-b]pyridine-6-carbonitrile]
- IC50: 8 nM

Compound: CC(C)Nc1cc(-n2ncc3cc(C#N)cnc32)ncc1-n1cc(CN(C)C)nn1 [Example 308, 1-(5-(4-((dimethylamino)methyl)-1H-1,2,3-triazol-1-yl)-4-(isopropylamino)pyridin-2-yl)-1H-pyrazolo[3,4-b]pyridine-5-carbonitrile]
- IC50: 80 nM

Compound: CC(C)Nc1cc(-n2ncc3cc(Cl)cnc32)ncc1-c1cn(C)nn1 [Example 165, 2-(5-chloro-1H-pyrazolo[3,4-b]pyridin-1-yl)-N-isopropyl-5-(1-methyl-1H-1,2,3-triazol-4-yl)pyridin-4-amine]
- IC50: 25 nM

Compound: CC(C)Nc1cc(-n2ncc3cc(C#N)cnc32)ncc1-n1cc(CO)nn1 [Example 295, 1-(5-(4-(hydroxymethyl)-1H-1,2,3-triazol-1-yl)-4-(isopropylamino)pyridin-2-yl)-1H-pyrazolo[3,4-b]pyridine-5-carbonitrile]
- IC50: 48 nM

Compound: CC(C)Nc1cc(-n2cnc3cc(C#N)cnc32)ncc1-c1cn(CCCF)nn1 [Example 45, 3-(5-(1-(3-fluoropropyl)-1H-1,2,3-triazol-4-yl)-4-(isopropylamino)pyridin-2-yl)-3H-imidazo[4,5-b]pyridine-6-carbonitrile]
- IC50: 8 nM

Compound: CC(C)Nc1cc(-n2ncc3cc(C#N)cnc32)ncc1-c1cn(Cc2nc3ccccc3[nH]2)nn1 [Example 108, 1-(5-(1-((1H-benzo[d]imidazol-2-yl)methyl)-1H-1,2,3-triazol-4-yl)-4-(isopropylamino)pyridin-2-yl)-1H-pyrazolo[3,4-b]pyridine-5-carbonitrile]
- IC50: 35 nM

Compound: CC(C)Nc1cc(-n2ncc3cc(C#N)cnc32)ncc1-c1cnn(C(F)F)c1 [Example 260, 1-(5-(1-(difluoromethyl)-1H-pyrazol-4-yl)-4-(isopropylamino)pyridin-2-yl)-1H-pyrazolo[3,4-b]pyridine-5-carbonitrile]
- IC50: 146 nM

Compound: CCN[C@H]1CC[C@H](c2cn(-c3cnc(-n4ncc5cc(C#N)cnc54)cc3NC(C)C)nn2)CC1 [Example 356, 1-(5-(4-((1s,4s)-4-(ethylamino)cyclohexyl)-1H-1,2,3-triazol-1-yl)-4-(isopropylamino)pyridin-2-yl)-1H-pyrazolo[3,4-b]pyridine-5-carbonitrile]
- IC50: 3 nM

Compound: CC(C)Nc1cc(-n2cnc3cc(C#N)cnc32)ncc1-c1cn([C@@H]2COC[C@H]2O)nn1 (single isomer, unassigned) [Example 74]
- IC50: 7 nM

Compound: CC(C)Nc1cc(-n2ncc3cc(C#N)cnc32)ncc1-n1cc(-c2ccccn2)cn1 [Example 245, 1-(4-(isopropylamino)-5-(4-(pyridin-2-yl)-1H-pyrazol-1-yl)pyridin-2-yl)-1H-pyrazolo[3,4-b]pyridine-5-carbonitrile]
- IC50: 334 nM

Compound: CC(C)Nc1cc(-n2ncc3cc(C#N)cnc32)ncc1-c1cnn(CC2COC2)c1 [Example 254, 1-(4-(isopropylamino)-5-(1-(oxetan-3-ylmethyl)-1H-pyrazol-4-yl)pyridin-2-yl)-1H-pyrazolo[3,4-b]pyridine-5-carbonitrile]
- IC50: 190 nM

Compound: CC(C)Nc1cc(-n2ncc3cc(C#N)cnc32)ncc1-c1cn(CC#N)nn1 [Example 47, 1-(5-(1-(cyanomethyl)-1H-1,2,3-triazol-4-yl)-4-(isopropylamino)pyridin-2-yl)-1H-pyrazolo[3,4-b]pyridine-5-carbonitrile]
- IC50: 16 nM

Compound: CNC(=O)Cn1cnc(-c2cnc(-n3ncc4cc(C#N)cnc43)cc2NC(C)C)c1 [Example 238, 2-(4-(6-(5-cyano-1H-pyrazolo[3,4-b]pyridin-1-yl)-4-(isopropylamino)pyridin-3-yl)-1H-imidazol-1-yl)-N-methylacetamide]
- IC50: 36 nM

Compound: CC(C)Nc1cc(-n2ncc3cc(C(N)=O)cnc32)ncc1-c1cn([C@@H]2CCNC[C@@H]2O)nn1 [Example 187, 1-(5-(1-((3S,4R)-3-hydroxypiperidin-4-yl)-1H-1,2,3-triazol-4-yl)-4-(isopropylamino)pyridin-2-yl)-1H-pyrazolo[3,4-b]pyridine-5-carboxamide]
- IC50: 302 nM

Compound: CC(C)Nc1cc(-n2ncc3cc(Cl)cnc32)ncc1-c1cn(CC2CC2)nn1 [Example 27, 2-(5-chloro-1H-pyrazolo [3,4-b]pyridin-1-yl)-5-(1-(cyclopropylmethyl)-1H-1,2,3-triazol-4-yl)-N-isopropylpyridin-4-amine]
- IC50: 16 nM

Compound: COc1cc(OC)cc(-c2cn(-c3cnc(-n4ncc5cc(C#N)cnc54)cc3NC(C)C)nn2)c1 [Example 316, 1-(5-(4-(3,5-dimethoxyphenyl)-1H-1,2,3-triazol-1-yl)-4-(isopropylamino)pyridin-2-yl)-1H-pyrazolo[3,4-b]pyridine-5-carbonitrile]
- IC50: 244 nM

Compound: CCCc1cn(-c2cnc(-n3ncc4cc(C#N)cnc43)cc2N[C@H](C)CO)nn1 [Example 272, (R)-1-(4-((1-hydroxypropan-2-yl)amino)-5-(4-propyl-1H-1,2,3-triazol-1-yl)pyridin-2-yl)-1H-pyrazolo[3,4-b]pyridine-5-carbonitrile]
- IC50: 529 nM
